# Assay results from US9775844B2, “Heterocyclic compounds and uses thereof” (Infinity Pharmaceuticals, Inc., priority 2014, dated 2017).
# Key:
# [1] = test system: KPC Pancreatic Cancer cells; assay: RNA expression profiling (TLDA) of KPC pancreatic cancer tumors; type: in vivo, mouse
# Experimental: RNA expression profiling was performed for immuno-phenotyping with a Taqman low density array (TLDA).
# For mouse tumors, snap frozen samples were powdered with a Genogrinder at liquid nitrogen temperatures and RNA was isolated with Trizol. Next, the sample was cleaned-up using Qiashredder, and then using a RNeasy kit.
# CT values were used for analysis. For each sample Si and each gene, the following values were calculated: dCT(Si,gene)=CT(Si,gene)−CT(Si,ACTB) ddCT(Si,gene)=dCT(Si,gene)−median(dCT(vehicle treated samples, gene)) RQ(Si, gene)=2^(−ddCT(Si,gene))
# This produced a matrix of RQ values: 48 genes (rows)×39 samples (cols).
# The analysis used R package Non-negative Matrix Factorization (NMF) with rank=3 and the “lee” algorithm.
# [2] = test system: Myeloid Derived Suppressor Cell; assay: Myeloid Derived Suppressor Cell differentiation assay; type: cell-based; details: MDSC differentiation assay
# Plasma protein binding = type: in vitro ADME; details: all species, read-out: PPB % free @ 1 uM
# [3] = Pharmacokinetics in dog, oral; type: in vivo; details: 5 mg/kg oral
# Source text: Compound BB's oral exposure is high in rat, dog and monkey. Good oral bioavailability and low clearance in rodent and non-rodent animal species results in high oral exposure.
# Lewis Lung Carcinoma = Lewis Lung Carcinoma model; type: in vivo, mice
# 4T1 breast cancer = assay: Orthotopic 4T1 breast cancer model; type: in vivo; details: Compound BB and/or PDL-1 inhibition
# LLC tumor brei = LLC tumor brei model with or without cyclophosphamide (tumor growth, FACS); type: in vivo, mouse
# Experimental: In this experiment, treatment began when tumors reached approx. 150 mm^3—around day 12. Caliper and xenogen images were monitored. Treatment groups n=13-15/group. […] Samples for FACs analysis were collected on day 23 post implant. Using FACS, cells were assayed for the level of CD11b and Gr-1.
# human T cells = assay: Concanavalin A-induced model for activation of human T cells (IFN-γ); type: cell-based; details: at isoform selective concentrations
# CT26 colon cancer = CT26 colon cancer model; type: in vivo, mouse
# bone marrow macrophages = assay: RANKL driven differentiation of osteoclasts from bone marrow macrophages; type: cell-based
# [4] = test system: spleen T cell proliferation; assay: Ex vivo T-cell proliferation assay with tumor-derived cells from treated mice; type: in vivo
# 4T1 = 4T1 breast cancer model
# phospho-AKT in T cells = assay: Ex vivo whole blood stimulation of phospho-AKT in T cells of LLC-bearing mice; details: LLC-bearing mice treated with compound
# [5] = Metabolic stability (microsome stability assay); type: in vitro ADME
# Experimental: The stability of one or more subject compounds is determined according to standard procedures known in the art. For example, stability of one or more subject compounds is established by an in vitro assay. For example, an in vitro microsome stability assay is established that measures stability of one or more subject compounds when reacting with mouse, rat or human microsomes from liver. The microsome reaction with compounds is performed in 1.5 mL Eppendorf tube. Each tube contains 0.1 μL of 10.0 mg/mL NADPH; 75 μL of 20.0 mg/mL mouse, rat or human liver microsome; […] of 0.2 M phosphate buffer, and 425 μL of ddH2O. Negative control (without NADPH) tube contains 75 μL of 20.0 mg/mL mouse, rat or human liver microsome; […] of 0.2 M phosphate buffer, and 525 μL of ddH2O. The reaction is started by adding 1.0 μL of 10.0 mM tested compound. The reaction tubes are incubated at 37° C. 100 μL sample is collected into new Eppendorf tube containing 300 μL cold methanol at 0, 5, 10, 15, 30 and 60 minutes of reaction. Samples are centrifuged at 15,000 rpm to remove protein. Supernatant of centrifuged sample is transferred to new tube. Concentration of stable compound after reaction with microsome in the supernatant is measured by Liquid Chromatography/Mass Spectrometry (LC-MS).
# These properties indicate the compound's suitability for in vivo administration.
# P-GP (P-glycoprotein 1) = P-GP (P-glycoprotein 1) (Homo sapiens (Human), UniProt P08183); assay: P-glycoprotein inhibition; type: in vitro ADME
# Source text: Without being bound by a particular theory, the P-gp inhibitor could help maintin levels of the P-gp substrate in tumors overexpressing the P-gp transporter.
# [6] = Expected oral half-life in humans (from animal data); details: human, based on rat, dog, monkey data
# PGP = PGP (Homo sapiens (Human), UniProt P08183); assay: PGP efflux; type: in vitro ADME
# Chain of PGP (P08183 whole entry, species assumed): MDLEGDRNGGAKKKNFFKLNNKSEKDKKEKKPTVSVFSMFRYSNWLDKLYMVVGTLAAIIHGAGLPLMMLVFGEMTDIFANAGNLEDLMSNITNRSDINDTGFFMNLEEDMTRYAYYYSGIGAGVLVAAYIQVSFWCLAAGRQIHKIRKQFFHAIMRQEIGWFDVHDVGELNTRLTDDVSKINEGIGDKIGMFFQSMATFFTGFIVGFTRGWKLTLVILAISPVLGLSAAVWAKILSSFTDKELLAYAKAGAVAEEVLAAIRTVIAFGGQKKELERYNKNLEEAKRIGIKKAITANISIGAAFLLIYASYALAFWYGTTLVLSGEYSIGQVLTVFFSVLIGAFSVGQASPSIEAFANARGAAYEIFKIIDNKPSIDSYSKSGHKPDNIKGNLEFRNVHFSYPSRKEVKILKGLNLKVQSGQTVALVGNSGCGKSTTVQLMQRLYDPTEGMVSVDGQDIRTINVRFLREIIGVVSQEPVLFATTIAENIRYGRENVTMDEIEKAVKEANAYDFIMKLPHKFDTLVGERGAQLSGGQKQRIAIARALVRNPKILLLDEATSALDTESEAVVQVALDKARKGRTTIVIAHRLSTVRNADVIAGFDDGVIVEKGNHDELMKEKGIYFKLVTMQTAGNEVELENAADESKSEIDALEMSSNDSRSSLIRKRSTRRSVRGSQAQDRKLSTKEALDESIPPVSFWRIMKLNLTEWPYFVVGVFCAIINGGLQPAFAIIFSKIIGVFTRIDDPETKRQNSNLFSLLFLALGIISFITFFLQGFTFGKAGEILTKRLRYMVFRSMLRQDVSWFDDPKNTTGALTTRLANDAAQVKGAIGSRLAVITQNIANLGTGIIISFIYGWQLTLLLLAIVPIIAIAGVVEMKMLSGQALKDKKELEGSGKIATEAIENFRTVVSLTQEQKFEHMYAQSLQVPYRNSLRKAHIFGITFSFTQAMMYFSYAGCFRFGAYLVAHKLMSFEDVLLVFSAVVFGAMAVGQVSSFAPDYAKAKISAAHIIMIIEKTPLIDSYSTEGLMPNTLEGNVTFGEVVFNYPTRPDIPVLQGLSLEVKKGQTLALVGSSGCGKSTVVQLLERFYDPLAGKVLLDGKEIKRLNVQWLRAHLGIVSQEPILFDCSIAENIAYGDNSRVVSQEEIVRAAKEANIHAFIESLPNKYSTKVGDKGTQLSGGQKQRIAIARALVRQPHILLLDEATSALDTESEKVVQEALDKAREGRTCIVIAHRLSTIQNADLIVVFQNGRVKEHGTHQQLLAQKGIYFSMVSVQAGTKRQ
# Chain of P-GP (P-glycoprotein 1) (P08183 whole entry, species assumed): as above
compound,measurement,setting,value
C[C@H](NC(=O)c1c(N)nn2cccnc12)c1cc2cccc(C#Cc3cnn(C)c3)c2c(=O)n1-c1ccccc1 [Compound BB],M2 macrophage markers VEGF and ARG-1 (RNA),"[1]; 3 mg/kg, with or without PDL-1 antibody",trended towards reduction
same,T regulatory and T effector genes (RNA),[1]; alone,trend in lower T regulatory and T effector genes
same,ARG1,[2],suppresses
same,VEGF,[2],suppresses
same,fraction unbound at 1 uM,Plasma protein binding,0.01 to 0.05
same,oral exposure (plasma concentrations within 24 hours),[3],high
same,single agent activity,Lewis Lung Carcinoma,demonstrates single agent activity
same,total luciferase flux,4T1 breast cancer,reduced total luciferase flux
same,tumor growth,4T1 breast cancer,reduced tumor growth
same,"tumor growth, LLC tumor brei model","LLC tumor brei; Compound BB 15 mg/kg QD PO, cyclophosphamide 50 mg/kg EOD IP",reduced tumor growth
same,CD206 population in LLC tumors (FACS),LLC tumor brei; Compound BB PO QD alone or with cyclophosphamide,decrease in the CD206 population
same,effect on IFN-γ,human T cells,little to no effect
same,MDSC expansion after cyclophosphamide treatment,CT26 colon cancer; CT26 colon cancer model,decreased
same,monocytic iMCs,CT26 colon cancer; CT26 subcutaneous tumors,decreased
same,RANKL driven differentiation of osteoclasts,bone marrow macrophages,prevents
same,inhibition of spleen T cell proliferation by cells isolated from tumors of treated mice,[4]; compared to tumor derived cells from vehicle treated mice,less inhibitory of spleen T cell proliferation
same,immune suppressive environment,[4]; ex vivo T-cell proliferation assay,reduces immune suppressive environment
same,"tumor growth, orthotopic 4T1 breast cancer model","4T1; 7.5 mg/kg PO once daily, FIG. 33A",reduced tumor growth
same,"total luciferase flux, orthotopic 4T1 breast cancer model","4T1; 7.5 mg/kg PO once daily, FIG. 33B",reduced total luciferase flux
same,"tumor growth, 4T1 model, alone or with chemotherapy","4T1; Compound BB 15 mg/kg PO QD 2 weeks, 5-FU 50 mg/kg, docetaxel 33 mg/kg, paclitaxel 10 mg/kg IP",reduction in tumor growth
same,"anti-tumor activity, subcutaneous 4T1 breast cancer model","4T1; single agent, FIG. 34",single agent activity
same,maintenance of anti-tumor effect after discontinuation of treatment,4T1; subcutaneous 4T1,at least 6 days
same,ex vivo whole blood stimulation of phospho-AKT in T cells,phospho-AKT in T cells,inhibits
same,metabolic stability,[5],high metabolic stability
same,half-life at 20 µM,"[5]; liver microsomes, microsomes, all species (incl rat)",> 2 h
same,P-GP inhibition,P-GP (P-glycoprotein 1),appears to be an inhibitor of P-GP
same,inhibition at 10 µM,"P-GP (P-glycoprotein 1); 10 uM, read-out: PGP Inhibition @ 10 uM",98%
same,IC50,P-GP (P-glycoprotein 1); read-out: PGP Inhibition IC50,< 1000 nM
same,half-life,[6],10 to 13 h
same,PGP efflux@ 10 uM,PGP,No
